# Results as given in ChEMBL document CHEMBL3232957, “Some non-conventional biomolecular targets for diamidines. A short survey” (Bioorg Med Chem, 2014).
# Tests used:
# Mus musculus [1] = assay: Neuroprotective activity in Swiss mouse focal cerebral injury model assessed as reduction of ibotenate-induced lesion size in gray matter at 4 ug/kg; assay type: functional; set-up: scale not given: the % may be the effect or the level left
# Mus musculus [2] = assay: Neuroprotective activity in Swiss mouse focal cerebral injury model assessed as reduction of ibotenate-induced lesion size in white matter at 4 ug/kg; assay type: functional; set-up: scale not given: the % may be the effect or the level left
# [3] = Antiproliferative activity against human C8146A cells assessed as growth inhibition; assay type: functional, cell-based
# [4] = target: Glutamate [NMDA] receptor; assay: Antagonist activity at NMDA receptor (unknown origin); set-up: species or system Homo sapiens
# [5] = Binding affinity to r(CUG)6 (unknown origin) assessed as inhibition of RNA-MBNL1 interaction by quantitative TR-FRET assay
# Homo sapiens [6] = species: Homo sapiens; assay: Inhibition of human KIR2.X channel assessed as remaining inward current at 0.2 uM; values are per cent of control
# Homo sapiens [7] = species: Homo sapiens; assay: Inhibition of human KIR2.X channel assessed as remaining outward current at 0.2 uM; values are per cent of control
# [8] = Inhibition of mouse hippocampal neurons ASIC transfected in CHO cells assessed as inhibition of acid-evoked current at -60 mV holding potential by two-electrode voltage-clamp electrophysiology assay; assay type: cell-based
# [9] = target: Glutamate NMDA receptor; GRIN1/GRIN2A (Homo sapiens, UniProt Q05586+Q12879); assay: Antagonist activity at NR1/NR2A receptor (unknown origin) expressed in Xenopus laevis oocytes assessed as inhibition of glutamate/glycine-induced current at pH 7.6 at -40mV holding potential by two-electrode voltage-clamp electrophysiology; assay type: cell-based
# Glutamate NMDA receptor; GRIN1/GRIN2A, sequence (Q12879 whole entry, other chains not shown): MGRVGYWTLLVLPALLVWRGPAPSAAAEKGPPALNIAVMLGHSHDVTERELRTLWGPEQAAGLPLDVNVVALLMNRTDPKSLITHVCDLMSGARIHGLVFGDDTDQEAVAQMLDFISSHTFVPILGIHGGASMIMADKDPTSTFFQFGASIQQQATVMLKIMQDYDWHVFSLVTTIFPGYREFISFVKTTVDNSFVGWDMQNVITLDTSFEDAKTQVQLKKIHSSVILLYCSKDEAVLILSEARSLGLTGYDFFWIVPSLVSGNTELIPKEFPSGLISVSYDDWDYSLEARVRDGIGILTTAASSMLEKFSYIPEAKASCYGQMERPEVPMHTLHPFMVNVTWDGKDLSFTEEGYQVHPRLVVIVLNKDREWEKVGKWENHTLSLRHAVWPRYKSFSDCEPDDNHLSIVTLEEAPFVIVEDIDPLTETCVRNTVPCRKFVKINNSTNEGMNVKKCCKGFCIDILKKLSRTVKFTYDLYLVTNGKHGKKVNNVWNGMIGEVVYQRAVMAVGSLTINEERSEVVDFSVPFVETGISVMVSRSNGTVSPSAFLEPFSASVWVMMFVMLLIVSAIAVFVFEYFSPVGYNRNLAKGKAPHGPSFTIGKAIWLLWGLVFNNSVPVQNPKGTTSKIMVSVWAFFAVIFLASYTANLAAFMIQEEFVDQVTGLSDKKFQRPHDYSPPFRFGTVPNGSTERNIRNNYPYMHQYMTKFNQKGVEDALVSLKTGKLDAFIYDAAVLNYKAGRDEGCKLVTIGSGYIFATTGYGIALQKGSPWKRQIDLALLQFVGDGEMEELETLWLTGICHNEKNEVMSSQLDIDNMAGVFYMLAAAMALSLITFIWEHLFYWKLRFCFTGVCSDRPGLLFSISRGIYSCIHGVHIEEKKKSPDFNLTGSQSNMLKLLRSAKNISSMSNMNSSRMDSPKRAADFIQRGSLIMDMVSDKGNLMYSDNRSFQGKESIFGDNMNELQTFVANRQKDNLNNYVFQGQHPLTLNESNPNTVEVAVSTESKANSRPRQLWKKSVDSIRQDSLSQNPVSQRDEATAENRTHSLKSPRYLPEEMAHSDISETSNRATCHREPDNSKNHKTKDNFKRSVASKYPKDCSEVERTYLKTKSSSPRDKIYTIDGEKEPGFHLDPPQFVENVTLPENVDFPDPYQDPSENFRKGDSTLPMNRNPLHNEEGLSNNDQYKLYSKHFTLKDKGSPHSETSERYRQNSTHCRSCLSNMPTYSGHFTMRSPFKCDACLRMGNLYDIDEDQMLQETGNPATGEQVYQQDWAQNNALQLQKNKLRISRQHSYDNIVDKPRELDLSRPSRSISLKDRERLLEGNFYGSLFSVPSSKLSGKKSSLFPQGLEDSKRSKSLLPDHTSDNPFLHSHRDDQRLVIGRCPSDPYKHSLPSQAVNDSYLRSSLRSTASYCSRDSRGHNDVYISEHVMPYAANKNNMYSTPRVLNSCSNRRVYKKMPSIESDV
# [10] = target: T1, Diamine oxidase [copper-containing] (Homo sapiens, UniProt P19801); assay: Mixed type inhibition of recombinant human DAO expressed in drosophila S2 cells; assay type: cell-based
# T1 sequence (P19801 whole entry): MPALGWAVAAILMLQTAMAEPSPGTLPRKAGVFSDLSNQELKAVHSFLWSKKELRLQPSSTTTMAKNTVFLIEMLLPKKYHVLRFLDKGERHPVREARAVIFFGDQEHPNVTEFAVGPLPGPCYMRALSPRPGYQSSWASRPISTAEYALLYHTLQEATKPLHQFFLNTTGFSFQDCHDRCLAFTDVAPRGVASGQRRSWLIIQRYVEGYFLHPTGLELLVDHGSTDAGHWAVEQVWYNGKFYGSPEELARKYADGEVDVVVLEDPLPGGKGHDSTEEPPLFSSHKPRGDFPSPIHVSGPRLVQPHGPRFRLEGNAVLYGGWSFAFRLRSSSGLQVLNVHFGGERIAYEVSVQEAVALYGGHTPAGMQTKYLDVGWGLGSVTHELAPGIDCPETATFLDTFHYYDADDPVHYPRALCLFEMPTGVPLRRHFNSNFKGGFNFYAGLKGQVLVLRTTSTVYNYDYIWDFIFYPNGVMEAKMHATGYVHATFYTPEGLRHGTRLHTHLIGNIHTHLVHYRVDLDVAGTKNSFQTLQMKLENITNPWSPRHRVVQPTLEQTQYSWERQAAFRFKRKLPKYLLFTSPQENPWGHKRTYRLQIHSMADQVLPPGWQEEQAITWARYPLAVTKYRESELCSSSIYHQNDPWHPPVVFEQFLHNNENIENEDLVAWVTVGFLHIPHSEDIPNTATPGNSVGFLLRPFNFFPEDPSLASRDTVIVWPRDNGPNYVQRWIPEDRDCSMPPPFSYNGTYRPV
# [11] = Inhibition of mouse polyamine oxidase assessed as conversion of N-acetylspermine to […]
# [12] = target: Diamine acetyltransferase 1 (Homo sapiens, UniProt P21673); assay: Inhibition of human SSAT using spermidine as substrate
# Diamine acetyltransferase 1, sequence (P21673 whole entry): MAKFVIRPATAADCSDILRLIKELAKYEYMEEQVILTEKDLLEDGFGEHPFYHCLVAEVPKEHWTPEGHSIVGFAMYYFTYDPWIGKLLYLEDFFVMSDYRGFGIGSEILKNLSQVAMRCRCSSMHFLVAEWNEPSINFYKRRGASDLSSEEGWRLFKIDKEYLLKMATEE
# [13] = target: T2, Acid-sensing ion channel 1 (Mus musculus) (UniProt Q6NXK8); assay: Inhibition of mouse hippocampal neurons ASIC1a transfected in CHO cells assessed as reduction of acid-evoked current at 3 uM at -60 mV holding potential by two-electrode voltage-clamp electrophysiology assay; assay type: cell-based
# T2 sequence (whole entry): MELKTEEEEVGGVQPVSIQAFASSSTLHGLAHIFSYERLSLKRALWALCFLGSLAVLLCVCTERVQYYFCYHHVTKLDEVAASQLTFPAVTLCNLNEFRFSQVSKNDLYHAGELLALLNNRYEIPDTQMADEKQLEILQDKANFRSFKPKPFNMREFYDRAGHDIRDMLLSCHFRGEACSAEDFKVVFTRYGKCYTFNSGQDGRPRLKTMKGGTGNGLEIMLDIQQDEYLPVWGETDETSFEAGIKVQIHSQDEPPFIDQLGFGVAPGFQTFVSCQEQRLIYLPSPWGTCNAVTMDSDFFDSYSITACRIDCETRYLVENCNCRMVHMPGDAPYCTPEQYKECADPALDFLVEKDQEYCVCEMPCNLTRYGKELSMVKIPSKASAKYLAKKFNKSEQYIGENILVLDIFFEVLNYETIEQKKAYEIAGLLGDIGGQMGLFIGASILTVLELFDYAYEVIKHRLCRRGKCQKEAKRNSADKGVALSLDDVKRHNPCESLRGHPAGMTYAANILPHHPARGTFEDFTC
# [14] = target: T2, Acid-sensing ion channel 1 (Mus musculus); assay: Inhibition of mouse hippocampal neurons ASIC1b transfected in CHO cells assessed as reduction of acid-evoked current at 3 uM at -60 mV holding potential by two-electrode voltage-clamp electrophysiology assay; assay type: cell-based
# [15] = target: T3, Acid-sensing ion channel 2 (Mus musculus) (UniProt Q925H0); assay: Inhibition of mouse hippocampal neurons ASIC2a transfected in CHO cells assessed as reduction of acid-evoked current at 3 uM at -60 mV holding potential by two-electrode voltage-clamp electrophysiology assay; assay type: cell-based
# T3 sequence (whole entry): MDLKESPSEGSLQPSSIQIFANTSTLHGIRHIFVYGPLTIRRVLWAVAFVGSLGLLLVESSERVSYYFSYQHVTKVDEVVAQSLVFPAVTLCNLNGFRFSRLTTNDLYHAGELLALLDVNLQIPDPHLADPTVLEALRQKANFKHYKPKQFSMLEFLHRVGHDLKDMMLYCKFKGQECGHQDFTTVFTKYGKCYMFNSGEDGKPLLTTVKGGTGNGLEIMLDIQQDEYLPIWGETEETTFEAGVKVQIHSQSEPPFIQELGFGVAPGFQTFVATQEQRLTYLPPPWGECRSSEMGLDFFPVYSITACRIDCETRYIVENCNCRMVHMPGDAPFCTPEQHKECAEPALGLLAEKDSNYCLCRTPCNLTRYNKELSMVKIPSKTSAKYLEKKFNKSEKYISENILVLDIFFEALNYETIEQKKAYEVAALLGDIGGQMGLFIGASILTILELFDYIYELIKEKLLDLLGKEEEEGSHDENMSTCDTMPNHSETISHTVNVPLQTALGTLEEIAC
# [16] = target: T4, Acid-sensing ion channel 3 (Mus musculus) (UniProt Q6X1Y6); assay: Inhibition of mouse hippocampal neurons ASIC3 transfected in CHO cells assessed as reduction of acid-evoked current at 3 uM at -60 mV holding potential by two-electrode voltage-clamp electrophysiology assay; assay type: cell-based
# T4 sequence (whole entry): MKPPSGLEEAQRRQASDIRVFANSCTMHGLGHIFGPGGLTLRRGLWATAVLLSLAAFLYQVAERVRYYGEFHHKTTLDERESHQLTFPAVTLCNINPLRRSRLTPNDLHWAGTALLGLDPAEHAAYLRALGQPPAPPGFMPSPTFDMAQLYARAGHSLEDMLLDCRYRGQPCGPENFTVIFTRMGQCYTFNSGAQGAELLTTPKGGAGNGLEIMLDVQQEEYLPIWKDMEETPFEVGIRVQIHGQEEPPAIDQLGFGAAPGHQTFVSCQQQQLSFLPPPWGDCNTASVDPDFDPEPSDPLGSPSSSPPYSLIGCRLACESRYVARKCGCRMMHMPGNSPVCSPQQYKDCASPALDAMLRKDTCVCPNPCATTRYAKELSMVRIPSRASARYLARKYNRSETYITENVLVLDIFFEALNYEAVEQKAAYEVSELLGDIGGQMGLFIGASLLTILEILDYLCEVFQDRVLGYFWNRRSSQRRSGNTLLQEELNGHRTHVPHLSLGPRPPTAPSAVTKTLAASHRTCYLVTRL
compound,measurement,setting,value
N=C(N)c1ccc(NCCNc2ccc(C(=N)N)cc2)cc1,Activity,Mus musculus [1],49%
same,Activity,Mus musculus [2],69%
N=C(N)NC(=N)Nc1cccc(Cl)c1Cl,IC50,[3],8 µM
Cc1cc(C)c(N2C(=O)c3ccc(C(=O)Nc4cc(C(=O)O)cc(C(=O)O)c4)cc3C2=O)c(C)c1,IC50,[3],44 µM
N=C(N)c1ccc(N2CCCN(c3ccc(C(=N)N)cc3)CC2)cc1,IC50,[4],1.19 µM
N=C(N)c1ccc(NC(=O)c2ccc(C(=O)Nc3ccc(C(=N)N)cc3)c(N)c2)cc1,IC50,[5],10 µM
N=C(N)c1ccc(OCCOc2cccc(N)c2)cc1,IC50,[5],250 µM
N=C(N)NC(=N)Nc1ccc(Cl)cc1C(=O)c1ccccc1,IC50,[3],12 µM
CC(C)(C)NC(=O)c1cccc(N2C(=O)c3ccc(C(=O)O)cc3C2=O)c1,IC50,[3],> 100 µM
Cc1c(NS(=O)(=O)c2ccc(NC(=O)CCC(=O)O)cc2)c(=O)n(-c2ccccc2)n1C,IC50,[3],> 100 µM
N=C(Nc1ccc(OCCCCCOc2ccc(NC(=N)c3ccccc3)cc2)cc1)c1ccccc1,residual activity,Homo sapiens [6],86.6%
same,residual activity,Homo sapiens [7],12.1%
N=C(N)c1ccc(-c2cc3ccc(C(=N)N)cc3[nH]2)cc1 [DAPI],IC50,[8],2.8 µM
CN1CC[C@@]23CCCC[C@@H]2[C@@H]1Cc1ccc(O)cc13 [DEXTRORPHAN],IC50,[9],1.3 µM
N=C(N)c1ccc(/N=N/Nc2ccc(C(=N)N)cc2)cc1 [DIMINAZENE],IC50,[8],0.3 µM
same,Ki,[10],0.013 µM
same,Ki,[11],120 µM
same,Ki,[12],2.4 µM
N=C(N)c1ccc(/C=C/c2ccc(C(=N)N)cc2O)cc1 [HYDROXYSTILBAMIDINE],IC50,[8],1.5 µM
CNC1(c2ccccc2Cl)CCCCC1=O (stereo not drawn) [KETAMINE],IC50,[9],3.31 µM
N=C(N)c1ccc(OCCCCCOc2ccc(C(=N)N)cc2)cc1 [PENTAMIDINE],IC50,[9],0.72 µM
same,IC50,[8],38 µM
same,inhibition,[13],39%
same,inhibition,[14],92%
same,inhibition,[15],51%
same,inhibition,[16],74%
same,Ki,[10],0.29 µM
same,Ki,[11],7.6 µM
same,Ki,[12],2 µM
same,IC50,[5],> 1000 µM
same,IC50,[3],1.2 µM
same,residual activity,Homo sapiens [6],48.2%
same,residual activity,Homo sapiens [7],10.8%
